Experimental data taken from US9206188B2, “Substituted pyrrolo[2,3-b]pyridines as ITK and JAK inhibitors” (Arrien Pharmaceuticals LLC, priority 2013, dated 2015).
Like-named read-outs stand apart in the source and are kept apart here.

Key:
JAK3 = JAK3 (Homo sapiens (Human), UniProt P52333); assay: JAK3 kinase assay (radiometric filter binding, 10 μM ATP); assay type: biochemical
Procedure: (§1) All additions were done on ice, followed by the addition of ATP mix. Wells were uniformly mixed using an Eppendorff plate shaker and incubated at 30° C. for 20 min, and stopped by the addition of 5 μL of 3% phosphoric acid. Volume was increased to 100 μL by adding 0.8% phosphoric acid which was then transferred to PC filter mats (Millipore), pre-equilibrated with 70% ethanol and water. Plates were washed thrice with 100 μL 0.8% phosphoric acid and dried for an hour at 60° C. 100 μL scintillation fluid was added into each well and reading taken in Perkin Elmer TOPCOUNT beta counter.
(§2) The reactions were carried out at 10 μM ATP for ITK, JAK3 and other TEC and Janus family of kinase.

ITK = ITK (Homo sapiens (Human), UniProt Q08881); assay: ITK kinase assay (radiometric filter binding, 10 μM ATP); assay type: biochemical
Procedure: as §1, §2

[1] = 10-dose IC50 mode, 10 μM ATP, read-out: JAK3 kinase inhibition
[2] = 10-dose IC50 mode, 10 μM ATP, read-out: ITK kinase inhibition

Chain of ITK (Q08881 whole entry): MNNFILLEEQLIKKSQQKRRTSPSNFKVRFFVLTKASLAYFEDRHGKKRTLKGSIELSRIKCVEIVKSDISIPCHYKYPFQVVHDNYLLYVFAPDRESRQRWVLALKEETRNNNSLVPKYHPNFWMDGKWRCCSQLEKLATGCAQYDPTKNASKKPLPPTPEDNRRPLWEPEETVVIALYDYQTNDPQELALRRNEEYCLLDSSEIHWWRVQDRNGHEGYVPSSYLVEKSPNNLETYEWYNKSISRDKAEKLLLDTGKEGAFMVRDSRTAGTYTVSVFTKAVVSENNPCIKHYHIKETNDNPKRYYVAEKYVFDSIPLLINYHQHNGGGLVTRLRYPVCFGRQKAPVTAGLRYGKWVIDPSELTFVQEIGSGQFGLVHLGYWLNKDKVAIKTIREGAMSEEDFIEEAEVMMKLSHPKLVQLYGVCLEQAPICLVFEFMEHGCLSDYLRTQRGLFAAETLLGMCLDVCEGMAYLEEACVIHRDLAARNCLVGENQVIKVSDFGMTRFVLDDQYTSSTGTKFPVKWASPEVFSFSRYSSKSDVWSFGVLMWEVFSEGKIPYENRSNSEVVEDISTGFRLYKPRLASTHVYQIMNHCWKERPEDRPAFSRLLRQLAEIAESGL
Chain of JAK3 (P52333 whole entry): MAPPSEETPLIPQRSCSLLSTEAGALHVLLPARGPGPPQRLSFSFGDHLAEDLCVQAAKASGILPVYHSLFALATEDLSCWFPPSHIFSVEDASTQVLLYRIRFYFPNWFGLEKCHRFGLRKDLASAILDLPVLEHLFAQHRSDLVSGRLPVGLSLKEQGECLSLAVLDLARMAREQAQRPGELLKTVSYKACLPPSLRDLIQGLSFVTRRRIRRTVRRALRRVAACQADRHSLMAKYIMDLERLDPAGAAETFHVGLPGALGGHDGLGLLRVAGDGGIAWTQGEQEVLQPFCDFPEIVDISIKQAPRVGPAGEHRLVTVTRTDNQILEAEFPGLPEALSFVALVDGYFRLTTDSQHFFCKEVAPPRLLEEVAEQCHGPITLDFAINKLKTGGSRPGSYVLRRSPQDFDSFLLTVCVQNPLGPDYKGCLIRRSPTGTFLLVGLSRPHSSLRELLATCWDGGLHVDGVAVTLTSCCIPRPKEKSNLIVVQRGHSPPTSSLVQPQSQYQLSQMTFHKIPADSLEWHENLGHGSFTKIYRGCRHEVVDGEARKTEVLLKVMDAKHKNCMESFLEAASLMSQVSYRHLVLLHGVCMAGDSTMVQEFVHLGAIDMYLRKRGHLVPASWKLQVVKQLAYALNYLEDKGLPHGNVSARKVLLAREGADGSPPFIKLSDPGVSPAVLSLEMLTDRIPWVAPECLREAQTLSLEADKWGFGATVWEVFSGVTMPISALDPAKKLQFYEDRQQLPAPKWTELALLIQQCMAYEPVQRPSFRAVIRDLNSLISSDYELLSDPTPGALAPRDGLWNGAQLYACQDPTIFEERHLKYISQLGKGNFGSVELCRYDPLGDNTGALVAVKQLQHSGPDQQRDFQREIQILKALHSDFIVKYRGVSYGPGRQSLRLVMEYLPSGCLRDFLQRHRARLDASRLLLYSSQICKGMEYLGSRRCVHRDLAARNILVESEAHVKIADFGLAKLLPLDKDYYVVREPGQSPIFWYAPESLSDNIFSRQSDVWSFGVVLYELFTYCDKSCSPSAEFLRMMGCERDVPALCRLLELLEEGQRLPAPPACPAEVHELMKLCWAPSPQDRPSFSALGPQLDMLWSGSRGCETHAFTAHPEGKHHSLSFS

IC50 (JAK3; [1])	IC50 (ITK; [2])	IC50 (JAK3; read-out: biochemical IC50 against JAK3)	IC50 (ITK; read-out: biochemical IC50 against ITK)	Compound
< 100 nM	> 100 nM	–	–	CCC#CC(=O)Nc1cccc(-c2cnc3[nH]cc(C)c3c2)c1 [Example 24, N-(3-(3-methyl-1H-pyrrolo[2,3-b]pyridin-5-yl)phenyl)pent-2-ynamide]
< 100 nM	< 100 nM	–	–	C=CC(=O)Nc1cccc(-c2cnc3[nH]cc(-c4cccc(F)c4OC)c3c2)c1 [Example 26, N-(3-(3-(3-fluoro-2-methoxyphenyl)-1H-pyrrolo[2,3-b]pyridin-5-yl)phenyl)acrylamide]
< 100 nM	< 100 nM	–	–	C=CC(=O)Nc1cccc(-c2cnc3[nH]cc(-c4cccc(S(=O)(=O)N(C)C(C)(C)C)c4)c3c2)c1 [Example 27, N-(3-(3-(3-(N-(tert-butyl)-N-methylsulfamoyl)phenyl)-1H-pyrrolo[2,3-b]pyridin-5-yl)phenyl)acrylamide]
< 100 nM	< 100 nM	–	–	C=CC(=O)Nc1cccc(-c2cnc3[nH]cc(-c4cccc(C(=O)OCC)c4)c3c2)c1 [Example 29, ethyl 3-(5-(3-acrylamidophenyl)-1H-pyrrolo[2,3-b]pyridin-3-yl)benzoate]
< 100 nM	< 100 nM	–	–	C=CC(=O)Nc1cccc(-c2cnc3[nH]cc(-c4cc(F)cc(F)c4OC)c3c2)c1 [Example 30, N-(3-(3-(3,5-difluoro-2-methoxyphenyl)-1H-pyrrolo[2,3-b]pyridin-5-yl)phenyl)acrylamide]
< 100 nM	> 100 nM	–	–	CCC#CC(=O)Nc1cccc(-c2cnc3[nH]cc(-c4cccc(S(=O)(=O)N(C)C(C)(C)C)c4)c3c2)c1 [Example 32, N-(3-(3-(3-(N-(tert-butyl)-N-methylsulfamoyl)phenyl)-1H-pyrrolo[2,3-b]pyridin-5-yl)phenyl)pent-2-ynamide]
< 100 nM	< 100 nM	–	–	C=CC(=O)Nc1cccc(-c2cnc3[nH]cc(-c4cccc(S(=O)(=O)N(C)C(C)(C)C)c4)c3n2)c1 [Example 33, N-(3-(7-(3-(N-(tert-butyl)-N-methylsulfamoyl)phenyl)-5H-pyrrolo[2,3-b]pyrazin-2-yl)phenyl)acrylamide]
> 100 nM	> 100 nM	–	–	C=CC(=O)Nc1cccc(-c2cnc3[nH]cc(-c4cccc(S(=O)(=O)N(C)C)c4)c3c2)c1 [Example 34, N-(3-(3-(3-(N,N-dimethylsulfamoyl)phenyl)-1H-pyrrolo[2,3-b]pyridin-5-yl)phenyl)acrylamide]
> 100 nM	> 100 nM	–	–	C=CC(=O)Nc1cccc(-c2cnc3[nH]cc(-c4cccc(S(C)(=O)=O)c4)c3c2)c1 [Example 35, N-(3-(3-(3-(methylsulfonyl)phenyl)-1H-pyrrolo[2,3-b]pyridin-5-yl)phenyl)acrylamide]
> 100 nM	> 100 nM	–	–	C=CC(=O)Nc1cccc(-c2cnc3[nH]cc(-c4cccc(S(=O)(=O)CC)c4)c3c2)c1 [Example 36, N-(3-(3-(3-(ethylsulfonyl)phenyl)-1H-pyrrolo[2,3-b]pyridin-5-yl)phenyl)acrylamide]
> 100 nM	> 100 nM	–	–	CCC#CC(=O)Nc1cccc(-c2cnc3[nH]cc(-c4cc(F)cc(F)c4OC)c3c2)c1 [Example 37, N-(3-(3-(3,5-difluoro-2-methoxyphenyl)-1H-pyrrolo[2,3-b]pyridin-5-yl)phenyl)pent-2-ynamide]
> 100 nM	> 100 nM	–	–	C=CC(=O)Nc1cc(-c2cnc3[nH]cc(-c4cc(F)cc(F)c4OC)c3c2)ccc1F [Example 38, N-(5-(3-(3,5-difluoro-2-methoxyphenyl)-1H-pyrrolo[2,3-b]pyridin-5-yl)-2-fluorophenyl)acrylamide]
> 100 nM	> 100 nM	–	–	C=CC(=O)Nc1ccc(F)c(-c2cnc3[nH]cc(-c4cc(F)cc(F)c4OC)c3c2)c1 [Example 40, N-(3-(3-(3,5-difluoro-2-methoxyphenyl)-1H-pyrrolo[2,3-b]pyridin-5-yl)-4-fluorophenyl)acrylamide]
> 100 nM	> 100 nM	–	–	C=CC(=O)Nc1cc(-c2cnc3[nH]cc(-c4cc(F)cc(F)c4OC)c3c2)ccc1Cl [Example 41, N-(2-chloro-5-(3-(3,5-difluoro-2-methoxyphenyl)-1H-pyrrolo[2,3-b]pyridin-5-yl)phenyl)acrylamide]
> 100 nM	> 100 nM	–	–	C=CC(=O)Nc1cccc(-c2cnc3[nH]cc(-c4cc(F)cc(F)c4OC)c3c2)n1 [Example 42, N-(6-(3-(3,5-difluoro-2-methoxyphenyl)-1H-pyrrolo[2,3-b]pyridin-5-yl)pyridin-2-yl)acrylamide]
> 1000 nM	> 1000 nM	–	–	C=CC(=O)Nc1cc(-c2cnc3[nH]cc(Cl)c3c2)ccc1Cl [Example 46, N-(2-chloro-5-(3-chloro-1H-pyrrolo[2,3-b]pyridin-5-yl)phenyl)acrylamide]
< 100 nM	< 100 nM	100 to 1000 nM	100 to 1000 nM	C=CC(=O)Nc1cccc(-c2cnc3[nH]cc(-c4cc5ccccc5[nH]4)c3c2)c1 [Example 66, N-(3-(3-(1H-indol-2-yl)-1H-pyrrolo[2,3-b]pyridin-5-yl)phenyl)acrylamide]
> 100 nM	> 100 nM	–	–	O=C(Nc1cccc(-c2cnc3[nH]cc(Cl)c3c2)c1)C1CCCN1 (stereo not drawn) [Example 67, N-(3-(3-chloro-1H-pyrrolo[2,3-b]pyridin-5-yl)phenyl)pyrrolidine-2-carboxamide]
> 100 nM	> 100 nM	–	–	C=CC(=O)N1CCCC1C(=O)Nc1cccc(-c2cnc3[nH]cc(Cl)c3c2)c1 (stereo not drawn) [Example 68, 1-acryloyl-N-(3-(3-chloro-1H-pyrrolo[2,3-b]pyridin-5-yl)phenyl)pyrrolidine-2-carboxamide]
< 100 nM	> 100 nM	–	–	C#CC(=O)Nc1cccc(-c2cnc3[nH]cc(C)c3c2)c1 [Example 70, N-(3-(3-methyl-1H-pyrrolo[2,3-b]pyridin-5-yl)phenyl)propiolamide]

Further lines, the compound ahead of its results:

Compound	IC50 (JAK3; [1])	IC50 (ITK; [2])	IC50 (JAK3; read-out: biochemical IC50 against JAK3)	IC50 (ITK; read-out: biochemical IC50 against ITK)
Cc1c[nH]c2ncc(-c3cccc(NC(=O)CF)c3)cc12 [Example 25, 2-fluoro-N-(3-(3-methyl-1H-pyrrolo[2,3-b]pyridin-5-yl)phenyl)acetamide]	< 100 nM	> 1000 nM	–	–
C=CC(=O)Nc1cc(-c2cnc3[nH]cc(-c4cc(F)cc(F)c4OC)c3c2)c(F)cc1F [Example 39, N-(5-(3-(3,5-difluoro-2-methoxyphenyl)-1H-pyrrolo[2,3-b]pyridin-5-yl)-2,4-difluorophenyl)acrylamide]	> 100 nM	> 100 nM	–	–
CC/C=C/C(=O)Nc1cc(-c2cnc3[nH]cc(Cl)c3c2)ccc1Cl [Example 47, (E)-N-(2-chloro-5-(3-chloro-1H-pyrrolo[2,3-b]pyridin-5-yl)phenyl)pent-2-enamide]	> 1000 nM	> 1000 nM	–	–
Cc1n[nH]c2ncc(-c3cccc(NC(=O)/C=C/N(C)C)c3)cc12 [Example 48, (E)-3-(dimethylamino)-N-(3-(3-methyl-1H-pyrazolo[3,4-b]pyridin-5-yl)phenyl)acrylamide]	> 100 nM	> 100 nM	–	–
Cc1n[nH]c2ncc(-c3ccc(Cl)c(NC(=O)/C=C/N(C)C)c3)cc12 [Example 49, (E)-N-(2-chloro-5-(3-methyl-1H-pyrazolo[3,4-b]pyridin-5-yl)phenyl)-3-(dimethylamino)acrylamide]	> 100 nM	> 100 nM	–	–
C=CC(=O)Nc1cc(-c2cnc3[nH]nc(C)c3c2)ccc1Cl [Example 50, N-(2-chloro-5-(3-methyl-1H-pyrazolo[3,4-b]pyridin-5-yl)phenyl)acrylamide]	> 100 nM	> 100 nM	–	–
CC/C=C/C(=O)Nc1cc(-c2cnc3[nH]nc(C)c3c2)ccc1Cl [Example 52, (E)-N-(2-chloro-5-(3-methyl-1H-pyrazolo[3,4-b]pyridin-5-yl)phenyl)pent-2-enamide]	> 1000 nM	> 1000 nM	–	–
N#CCc1cccc(Nc2cnc3[nH]cc(Cl)c3c2)c1 [Example 53, 2-(3-((3-chloro-1H-pyrrolo[2,3-b]pyridin-5-yl)amino)phenyl)acetonitrile]	> 1000 nM	> 1000 nM	–	–
C=CC(=O)Nc1cccc(-c2cnc3[nH]ccc3c2)n1 [Example 57, N-(6-(1H-pyrrolo[2,3-b]pyridin-5-yl)pyridin-2-yl)acrylamide]	< 100 nM	> 100 nM	–	–
C=CC(=O)Nc1cccc(-c2cnc3[nH]cc(Cl)c3c2)n1 [Example 58, N-(6-(3-chloro-1H-pyrrolo[2,3-b]pyridin-5-yl)pyridin-2-yl)acrylamide]	< 100 nM	> 100 nM	–	–
C=CC(=O)Nc1cc(-c2cnc3[nH]ccc3c2)ccc1F [Example 59, N-(2-fluoro-5-(1H-pyrrolo[2,3-b]pyridin-5-yl)phenyl)acrylamide]	< 100 nM	< 100 nM	–	–
C=CC(=O)Nc1ccc(-c2cnc3[nH]ccc3c2)cc1F [Example 61, N-(2-fluoro-4-(1H-pyrrolo[2,3-b]pyridin-5-yl)phenyl)acrylamide]	> 100 nM	> 1000 nM	–	–
C=CC(=O)Nc1ccc(-c2cnc3[nH]cc(Cl)c3c2)cc1F [Example 62, -(4-(3-chloro-1H-pyrrolo[2,3-b]pyridin-5-yl)-2-fluorophenyl)acrylamide]	> 100 nM	> 1000 nM	–	–
C=CC(=O)Nc1cc(-c2cnc3[nH]ccc3c2)cc(F)c1F [Example 63, N-(2,3-difluoro-5-(1H-pyrrolo[2,3-b]pyridin-5-yl)phenyl)acrylamide]	> 100 nM	> 1000 nM	–	–
C=CC(=O)N1CCCC1C(=O)Nc1cnc2[nH]ccc2c1 (stereo not drawn) [Example 69, 1-acryloyl-N-(1H-pyrrolo[2,3-b]pyridin-5-yl)pyrrolidine-2-carboxamide]	> 100 nM	> 100 nM	–	–
